Reference: US20240216354A1, “IMMUNOMODULATORY IMIDE DRUGS AS ZETA-CHAIN-ASSOCIATED PROTEIN KINASE 70 (ZAP70) AGONISTS AND USES THEREOF” (Dana-Farber Cancer Institute, Inc., priority 2019, published 2024)

How the values were obtained:
granzyme-B (GZM-B) = experiment: GZM-B expression in primary NK cells (immunoblotting); assay type: cell-based, human; conditions: primary NK cells #1, #2, pomalidomide 0.3-1 μM, 24 h
Experimental: (A) KHYG1 cells were cultured with pomalidomide (0.25-1 μM) for 24 h. (B) Isolated primary NK cells from healthy volunteers (#1, #2) were cultured with pomalidomide (0.3-1 μM) for 24 h. (C) KHYG-1 cells were transfected with Scsi or Zap-70si. After 48 h, cells were cultured for 24 h in the absence or presence (0.5 μM) of pomalidomide. Whole cell lysates and RNAs were subjected to immunoblotting using indicated Abs.

Zap-70 [1] = molecular target: T1, Zap-70 (Homo sapiens, UniProt P43403); experiment: Pomalidomide-beads pull-down from Jurkat whole cell lysates; assay type: binding; parameters: purchased Origene, Rockville, MD; conditions: competitor 1 mM free pomalidomide, 1 h
T1 sequence (P43403 1-619): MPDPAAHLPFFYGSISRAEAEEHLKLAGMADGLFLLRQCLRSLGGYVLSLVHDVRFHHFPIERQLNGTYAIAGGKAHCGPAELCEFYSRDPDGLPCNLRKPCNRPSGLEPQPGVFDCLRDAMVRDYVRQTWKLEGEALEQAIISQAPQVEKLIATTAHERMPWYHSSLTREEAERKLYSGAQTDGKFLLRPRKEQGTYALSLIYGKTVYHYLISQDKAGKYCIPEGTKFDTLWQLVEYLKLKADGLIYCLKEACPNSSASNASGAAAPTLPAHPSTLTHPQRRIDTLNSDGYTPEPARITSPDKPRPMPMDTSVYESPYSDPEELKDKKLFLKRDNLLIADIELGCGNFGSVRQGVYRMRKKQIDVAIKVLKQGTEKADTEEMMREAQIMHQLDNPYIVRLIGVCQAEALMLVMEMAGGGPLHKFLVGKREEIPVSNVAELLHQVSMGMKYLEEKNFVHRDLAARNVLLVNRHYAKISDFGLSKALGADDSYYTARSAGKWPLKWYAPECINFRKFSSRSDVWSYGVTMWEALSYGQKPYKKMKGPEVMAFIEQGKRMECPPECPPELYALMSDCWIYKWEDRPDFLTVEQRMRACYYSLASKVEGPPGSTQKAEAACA
Experimental: (§1) (A) Jurkat cells were transfected with scrambled (Sc) siRNA or Zap-70 siRNA. Whole cell lysates were subjected to immunoblotting using indicated Abs. (B) Jurkat cells were treated with lenalidomide ([…]) or pomalidomide (1 and 3 μM) for 4 h and 8 h. Whole cell lysates were subjected to p-Zap ELISA assay. (C) Jurkat whole cell lysates were incubated with pomalidomide-beads in the presence or absence of competitor (1 mM free pomalidomide) for 1 h. After elution, samples were subjected to immunoblotting using anti-Zap-70 Ab. (D) Saturation-transfer difference resulting from the binding of pomalidomide to Zap-70. Pomalidomide is at 320 μM and Zap-70 is approximately 2 μM in deuterated PBS solution. […] (E) Saturation-transfer difference resulting from the binding of pomalidomide to Zap-70 in the presence of 2.56 mMATP. Pomalidomide is at 320 μM and Zap-70 is approximately 2 μM in deuterated PBS solution. […] Note that both ATP and pomalidomide show binding the Zap-70. (F) Non-cell based Zap-70 kinase assay was carried out, according to manufacturer's protocol.

Zap-70 [2] = molecular target: T1, Zap-70; experiment: Saturation-transfer difference (STD) NMR binding to recombinant Zap-70; parameters: purchased Origene, Rockville, MD; conditions: Pom 320 μM, Len 2.56 mM, ATP 2.56 mM, Zap-70 approximately 2 μM, deuterated PBS
Experimental: as §1
(A) Saturation-transfer difference resulting from the binding of lenalidomide to Zap-70, with lenalidomide (2.56 mM) and Zap-70 (2 μM) in deuterated PBS solution. […] (B) Saturation-transfer difference resulting from the binding of lenalidomide to Zap70 in the presence of 2.56 mM ATP, with lenalidomide (2.56 mM) and Zap-70 (2 μM) in deuterated PBS solution.
Commercial recombinant Zap-70 (Origene, Rockville, MD) was prepared by gel filtration buffer exchange into deuterated phosphate-buffered saline (PBS), which removed any components of the protein storage buffer, including glycerol. Len and Pom were made as d6-DMSO stock solutions and frozen in aliquots prior to use. ATP was stored frozen in aliquots at −20° C. in deuterated PBS. NMR samples were prepared in 5 mm SampleJet tubes to a final volume of 500 μl by adding 5-20 μl of the appropriate IMiD stock solution to the buffer-exchanged protein. The final concentration of protein in the NMR samples was approximately 2 μM. […]

Jurkat cells = experiment: Jurkat cell growth by MTT assay; assay type: cell-based; conditions: 0.01-1 μM, 72 h
Experimental: (A) PBMCs were cultured with pomalidomide (“Pom”) (0.01-1 μM) for 16 h. […] (B) PBMCs were cultured with pomalidomide (0.1 and 1 μM) for the indicated time periods. (C) PBMCs were cultured with lenalidomide (“Len”) (1 μM) for 16 h. (D) Primary T-cells from healthy volunteer were cultured with pomalidomide (0.25-1 μM) for 16 h. (E) Jurkat cells were cultured with pomalidomide (0.5 and 1 μM) for 16 h. Whole cell lysates were subjected to immunoblotting (A-E) using indicated Abs. (F) Jurkat cells were cultured with pomalidomide (0.01-1 μM) or lenalidomide (0.01-1 μM) for 72 h. Cell growth was assessed by MTT assay.

Nc1cccc2c1C(=O)N(C1CCC(=O)NC1=O)C2=O (stereo not shown) [pomalidomide]
GZM-B expression (granzyme-B (GZM-B)): upregulated GZM-B expression | competition of Zap-70 pull-down by Pom-beads (Zap-70 [1]): inhibited by free pomalidomide | direct binding to Zap-70 (STD NMR) (Zap-70 [2]): directly binds to Zap-70 | proliferation / cell growth (MTT) (Jurkat cells): without altering their proliferation
